In the NIST ThermoML archive (doi:10.1021/je900966r):

Key:
[1] = refractive index (Na D-line) (dimensionless); mn = molality of the nth substance listed, in mol/kg; conditions: 298.15 K, 101 kPa, Liquid, Standard Abbe refractometry
[2] = mn = molality of the nth substance listed, in mol/kg; conditions: 101 kPa, Liquid

OC[C@@H](O)[C@@H](O)[C@H](O)[C@H](O)CO [mannitol] + O
[1]
Conditions | refractive index
m1 = 0.1 | 1.3358
m1 = 0.1499 | 1.337
m1 = 0.1999 | 1.3385
m1 = 0.25 | 1.3396
m1 = 0.3 | 1.341
m1 = 0.35 | 1.3422
m1 = 0.4 | 1.343

mass density [kg/m3], [2]
Conditions | m1 = 0.1 | m1 = 0.1499 | m1 = 0.1999 | m1 = 0.25 | m1 = 0.3 | m1 = 0.35 | m1 = 0.4
293.15 K | 1004.39 | 1007.5 | 1010.61 | 1013.69 | 1016.75 | 1019.74 | 1022.71
298.15 K | 1003.21 | 1006.3 | 1009.4 | 1012.46 | 1015.48 | 1018.46 | 1021.43
303.15 K | 1001.79 | 1004.87 | 1007.95 | 1010.98 | 1013.99 | 1016.97 | 1019.92
308.15 K | 1000.12 | 1003.19 | 1006.23 | 1009.26 | 1012.25 | 1015.19 | 1018.13
313.15 K | 998.283 | 1001.33 | 1004.36 | 1007.37 | 1010.33 | 1013.26 | 1016.18

CCCO [propan-1-ol] + O
[1]
Conditions | refractive index
m1 = 0.1001 | 1.3331
m1 = 0.15 | 1.3338
m1 = 0.2 | 1.3341
m1 = 0.3 | 1.3344
m1 = 0.4 | 1.3349
m1 = 0.5 | 1.3353

mass density [kg/m3], [2]
Conditions | m1 = 0.1001 | m1 = 0.15 | m1 = 0.2 | m1 = 0.3 | m1 = 0.4 | m1 = 0.5
293.15 K | 996.609 | 996.479 | 996.336 | 995.903 | 994.27 | 993.364
298.15 K | 995.441 | 995.293 | 995.163 | 994.694 | 993.072 | 992.148
303.15 K | 994.029 | 993.828 | 993.747 | 993.242 | 991.629 | 990.687
308.15 K | 992.397 | 992.237 | 992.113 | 991.569 | 989.962 | 989.004
313.15 K | 990.564 | 990.399 | 990.278 | 989.694 | 988.093 | 987.114

CC(C)O [propan-2-ol] + O
[1]
Conditions | refractive index
m1 = 0.1 | 1.3329
m1 = 0.1501 | 1.3335
m1 = 0.1999 | 1.3338
m1 = 0.3 | 1.3341
m1 = 0.3998 | 1.3345
m1 = 0.5 | 1.335

mass density [kg/m3], [2]
Conditions | m1 = 0.1 | m1 = 0.1501 | m1 = 0.1999 | m1 = 0.3 | m1 = 0.3998 | m1 = 0.5
293.15 K | 996.544 | 995.924 | 995.4 | 994.591 | 993.922 | 993.065
298.15 K | 995.386 | 994.764 | 994.22 | 993.429 | 992.857 | 991.893
303.15 K | 993.986 | 993.358 | 992.795 | 992.018 | 991.441 | 990.472
308.15 K | 992.365 | 991.731 | 991.148 | 990.384 | 989.702 | 988.826
313.15 K | 990.542 | 989.901 | 989.299 | 988.545 | 987.816 | 986.979

O [water] + OC[C@@H](O)[C@@H](O)[C@H](O)[C@H](O)CO
Conditions | refractive index
[1], m2 = 0 | 1.3326
